According to ChEMBL document CHEMBL1811817, “Molecular docking studies and in vitro screening of new dihydropyridine derivatives as human MRP1 inhibitors” (Bioorg Med Chem, 2011):

What was measured:
[1] = biological target: T1, Multidrug resistance-associated protein 1 (Homo sapiens, UniProt P33527); experiment: Inhibition of vanadate-sensitive ATPase basal activity of human MRP1 expressed in Sf9 cells assessed as generation of inorganic phosphate at 10 uM by spectrophotometry in presence of glutathione; settings: sf9, 10 µM
T1 sequence (P33527 whole entry): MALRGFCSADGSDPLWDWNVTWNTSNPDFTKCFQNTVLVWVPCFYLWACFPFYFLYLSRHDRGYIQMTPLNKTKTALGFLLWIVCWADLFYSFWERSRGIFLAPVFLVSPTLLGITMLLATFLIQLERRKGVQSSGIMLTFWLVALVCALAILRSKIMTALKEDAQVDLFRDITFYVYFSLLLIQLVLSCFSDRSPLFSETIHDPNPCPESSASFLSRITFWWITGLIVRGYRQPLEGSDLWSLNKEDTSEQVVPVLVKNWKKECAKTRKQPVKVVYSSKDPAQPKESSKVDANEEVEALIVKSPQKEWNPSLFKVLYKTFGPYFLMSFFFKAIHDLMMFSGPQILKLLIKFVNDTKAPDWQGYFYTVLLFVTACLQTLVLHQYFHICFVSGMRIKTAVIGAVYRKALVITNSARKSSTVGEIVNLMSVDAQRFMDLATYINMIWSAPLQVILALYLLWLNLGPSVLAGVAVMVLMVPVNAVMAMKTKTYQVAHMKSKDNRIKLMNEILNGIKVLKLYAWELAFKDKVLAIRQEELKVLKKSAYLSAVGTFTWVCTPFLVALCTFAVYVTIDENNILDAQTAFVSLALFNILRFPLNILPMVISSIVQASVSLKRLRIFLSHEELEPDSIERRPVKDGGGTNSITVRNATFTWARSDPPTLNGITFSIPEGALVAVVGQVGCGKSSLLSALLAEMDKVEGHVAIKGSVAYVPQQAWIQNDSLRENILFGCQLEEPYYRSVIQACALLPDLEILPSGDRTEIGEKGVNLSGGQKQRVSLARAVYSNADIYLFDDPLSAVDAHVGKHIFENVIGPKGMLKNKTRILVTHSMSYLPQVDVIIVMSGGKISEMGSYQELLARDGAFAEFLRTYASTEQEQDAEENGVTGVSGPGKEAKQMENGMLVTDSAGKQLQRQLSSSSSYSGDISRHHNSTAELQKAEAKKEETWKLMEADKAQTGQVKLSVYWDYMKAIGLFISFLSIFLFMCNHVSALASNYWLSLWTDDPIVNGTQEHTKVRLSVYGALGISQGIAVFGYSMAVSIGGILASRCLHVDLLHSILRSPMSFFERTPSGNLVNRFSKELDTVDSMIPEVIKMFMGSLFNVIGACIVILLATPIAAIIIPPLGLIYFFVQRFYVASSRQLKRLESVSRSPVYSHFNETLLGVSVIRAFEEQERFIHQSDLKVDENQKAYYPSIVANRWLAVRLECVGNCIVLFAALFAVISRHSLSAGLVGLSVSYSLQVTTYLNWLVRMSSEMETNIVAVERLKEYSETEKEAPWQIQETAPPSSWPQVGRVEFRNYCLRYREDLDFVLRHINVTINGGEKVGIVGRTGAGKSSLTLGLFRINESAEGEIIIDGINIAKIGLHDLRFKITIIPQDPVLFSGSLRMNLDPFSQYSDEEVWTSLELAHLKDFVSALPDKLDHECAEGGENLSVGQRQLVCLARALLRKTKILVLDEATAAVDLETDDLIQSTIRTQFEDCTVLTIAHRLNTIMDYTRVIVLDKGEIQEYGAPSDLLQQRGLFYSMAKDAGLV

MRP1 [2] = biological target: T2, MRP1 (Homo sapiens, UniProt P33527); experiment: Inhibition of human MRP1 expressed in Spodoptera frugiperda Sf9 cells assessed as decrease in NEM-GS induced vanadate-sensitive ATPase activity measured by generation of inorganic phosphate at 30 uM by spectrophotometry in presence of glutathione; settings: Spodoptera frugiperda Sf9 cells expressing human MRP1, probe NEM-GS
T2 sequence (P33527 whole entry): as above

[3] = biological target: T1, Multidrug resistance-associated protein 1; experiment: Inhibition of human MRP1 expressed in Spodoptera frugiperda Sf9 cells assessed as inhibition of NEM-GS-induced vanadate-sensitive ATPase activity measured by generation of inorganic phosphate by spectrophotometry in presence of glutathione
MRP1 [4] = biological target: T2, MRP1; experiment: Inhibition of human MRP1 expressed in Spodoptera frugiperda Sf9 cells assessed as decrease in NEM-GS induced vanadate-sensitive ATPase activity measured by generation of inorganic phosphate at 100 uM by spectrophotometry in presence of glutathione; settings: Spodoptera frugiperda Sf9 cells expressing human MRP1, probe NEM-GS

inhibition (INH) [3]	SMILES	further results
–	CC1=C(C(=O)Nc2ccccc2)C(c2ccco2)C(C(=O)Nc2ccccc2)=C(C)N1	inhibition (INH) [1]: Active; inhibition at 30 µM (MRP1 [2]): 52.8%
Not Active	CC1=C(C(=O)Nc2ccccc2)C(c2ccccn2)C(C(=O)Nc2ccccc2)=C(C)N1	–
Not Active	CC1=C(C(=O)Nc2ccccc2)C(c2cccs2)C(C(=O)Nc2ccccc2)=C(C)N1	–
Not Active	CC1=C(C(=O)Nc2ccccc2)C(c2ncc[nH]2)C(C(=O)Nc2ccccc2)=C(C)N1	–
Not Active	CC1=C(C(=O)Nc2ccccc2)C(c2ccc[nH]2)C(C(=O)Nc2ccccc2)=C(C)N1	–
Not Active	CC1=C(C(=O)Nc2ccccc2)C(c2ccc(Cl)cc2)C(C(=O)Nc2ccccc2)=C(C)N1	–
Not Active	CC1=C(C(=O)Nc2ccccn2)C(c2ccco2)C(C(=O)Nc2ccccn2)=C(C)N1	–
Not Active	CC1=C(C(=O)Nc2ccccn2)C(c2ncc[nH]2)C(C(=O)Nc2ccccn2)=C(C)N1	–
–	CC1=C(C(=O)Nc2ccccn2)C(c2ccc[nH]2)C(C(=O)Nc2ccccn2)=C(C)N1	inhibition at 100 µM (MRP1 [4]): 78%; inhibition (INH) [1]: Active; inhibition at 30 µM (MRP1 [2]): 69.8%
Not Active	CC1=C(C(=O)Nc2ccc(C)cc2)C(c2ncc[nH]2)C(C(=O)Nc2ccc(C)cc2)=C(C)N1	–
